Data reported in patent US8895571B2, “Isoindolinone and pyrrolopyridinone derivatives as Akt inhibitors” (Incyte Corporation, priority 2011, dated 2014).

Columns and labels:
Format in all cases: biochemical
[1] = target: T1, Full length Akt3 (Homo sapiens, UniProt Q9Y243); test: In vitro Akt kinase enzymatic assay (HTRF), Akt3; settings: 0.6 nM Akt3, substrate solution with 5 mM ATP, 25° C. 1 hr
T1 construct: Full length Akt1 (cat #P2999), Akt2 (cat #PV3184), Akt3 (cat #PV3185); purchased PerkinElmer PV3185
T1 sequence (Q9Y243 whole entry): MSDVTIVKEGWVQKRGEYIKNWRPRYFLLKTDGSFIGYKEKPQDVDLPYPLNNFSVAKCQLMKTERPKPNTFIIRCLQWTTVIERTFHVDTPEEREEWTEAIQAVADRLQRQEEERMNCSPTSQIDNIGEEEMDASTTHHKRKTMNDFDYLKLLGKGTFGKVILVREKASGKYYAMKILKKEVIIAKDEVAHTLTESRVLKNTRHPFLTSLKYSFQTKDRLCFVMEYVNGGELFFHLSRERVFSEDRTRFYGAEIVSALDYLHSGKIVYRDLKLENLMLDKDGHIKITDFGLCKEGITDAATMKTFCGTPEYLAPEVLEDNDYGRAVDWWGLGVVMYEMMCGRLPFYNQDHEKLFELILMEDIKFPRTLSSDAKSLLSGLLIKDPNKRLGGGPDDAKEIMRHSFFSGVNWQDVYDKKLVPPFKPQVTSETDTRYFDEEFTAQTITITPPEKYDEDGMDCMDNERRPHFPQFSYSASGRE
Description: (§1) Compounds herein were tested for inhibitory activity of Akt targets according to the following in vitro assay. Full length Akt1 (cat #P2999), Akt2 (cat #PV3184), Akt3 (cat #PV3185), peptide substrate, Ulight-Crosstide (cat #TRF0106-M), Ultra-Europium anti-phospho-Crosstide (cat #TRF-0202-M), and 10×LANCE detection buffer (cat #CR97-100) were purchased from PerkinElmer. In general, assay buffer conditions were chosen based on obtaining optimal enzymatic and linear activities. The assay buffer contains 50 mM HEPES, 10 mM MgCl2, 5 mM DTT, 0.005% Tween20 at pH 7.8. Compound stock (0.001 mM) was prepared in DMSO. The compound plate was prepared by 3-fold and 11-point serial dilutions. 0.5 μL of the compound in DMSO was transferred from the compound plate to the assay plate. Enzyme solution (0.4 nM of Akt1, 0.6 nM of Akt2 or 0.6 nM of Akt3) was prepared in the assay buffer. Note that the enzyme concentration given is based on the given stock concentration reported by the vendor. 0.1 μM substrate solution was prepared in the assay buffer with addition of 5 mM ATP. 10 μL of the enzyme solution was added to the assay plate and then 10 μL of substrate solution was added to the assay plate. The plate was protected from light and the reaction was incubated at 25° C. for 1 hr. The reaction was stopped by adding 10 μL of a solution containing 30 mM EDTA, and 3 nM Ultra Europium anti-phospho Crosstide in 1× detection buffer. The plate was incubated for 15-30 min at room temperature and HTRF (homogenous time resolved fluorescence) was measured on a plate reader. Percentage of inhibition was calculated for each concentration and IC50 value was generated from curve fitting. See Table 8 for data related to compounds of the examples.

[2] = target: T2, Full length PKA (Homo sapiens, UniProt P17612); test: PKA in vitro enzymatic assay (HTRF); settings: 0.035 nM enzyme solution, substrate solution with 5 mM ATP, 25° C. 1 hr
T2 construct: Full length PKA (cat #P2912); purchased Invitrogen P2912
Description: Full length PKA (cat #P2912), peptide substrate, fluorescein CREBtide peptide (cat #PV3508), Tb-Crebtide p-S133 Ab (cat #PV3566), and Lanthascreen TR-FRET Dilution Buffer stored (part # PV3574) were purchased from Invitrogen. In general, assay buffer conditions were chosen based on obtaining optimal and linear enzymatic activities. The assay buffer contains 50 mM HEPES, 10 mM MgCl2, 5 mM DTT, 0.005% Tween20 at pH 7.8. Compound stock (0.001 mM) was prepared in DMSO. The compound plate was prepared by 3-fold and 11-point serial dilutions. 0.5 μL of the compound in DMSO was transferred from the compound plate to the assay plate. 0.035 nM enzyme solution was prepared in the assay buffer. Note that the enzyme concentration given is based on the given stock concentration reported by the vendor. 0.1 μM substrate solution was prepared in the assay buffer with addition of 5 mM ATP. 10 μL of the enzyme solution was added to the assay plate and then 10 μL of substrate solution was added to the assay plate. The plate was protected from light and the reaction was incubated at 25° C. for 1 hr. The reaction was stopped by adding 10 μL of a solution containing 30 mM EDTA, and 1.5 nM Tb-Crebtide p-S133 Ab in 1× detection buffer. The plate was incubated for 15-30 min at room temperature and HTRF (homogenous time resolved fluorescence) was measured on a plate reader. Percentage of inhibition was calculated for each concentration and IC50 value was generated from curve fitting. See Table 8 for data related to compounds of the examples.

[3] = target: T3, Full length Akt2 (Homo sapiens, UniProt P31751); test: In vitro Akt kinase enzymatic assay (HTRF), Akt2; settings: 0.6 nM Akt2, substrate solution with 5 mM ATP, 25° C. 1 hr
T3 construct: Full length Akt1 (cat #P2999), Akt2 (cat #PV3184); purchased PerkinElmer PV3184
T3 sequence (P31751 whole entry): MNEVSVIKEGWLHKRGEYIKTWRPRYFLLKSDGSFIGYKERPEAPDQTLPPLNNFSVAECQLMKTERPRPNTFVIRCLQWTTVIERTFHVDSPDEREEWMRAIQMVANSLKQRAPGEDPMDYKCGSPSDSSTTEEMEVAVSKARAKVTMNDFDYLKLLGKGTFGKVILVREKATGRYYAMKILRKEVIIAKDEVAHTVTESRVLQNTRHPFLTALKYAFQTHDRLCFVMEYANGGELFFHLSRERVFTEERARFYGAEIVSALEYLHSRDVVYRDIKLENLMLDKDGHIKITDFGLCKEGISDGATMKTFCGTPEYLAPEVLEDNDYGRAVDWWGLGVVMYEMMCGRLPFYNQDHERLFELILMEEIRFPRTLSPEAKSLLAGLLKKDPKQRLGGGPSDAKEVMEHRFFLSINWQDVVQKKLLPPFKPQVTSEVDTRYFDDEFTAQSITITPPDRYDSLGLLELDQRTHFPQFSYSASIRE
Description: as §1

[4] = target: T4, Full length Akt1 (Homo sapiens, UniProt P31749); test: In vitro Akt kinase enzymatic assay (HTRF), Akt1; settings: 0.4 nM Akt1, substrate solution with 5 mM ATP, 25° C. 1 hr
T4 construct: Full length Akt1 (cat #P2999); purchased PerkinElmer P2999
T4 sequence (P31749 whole entry): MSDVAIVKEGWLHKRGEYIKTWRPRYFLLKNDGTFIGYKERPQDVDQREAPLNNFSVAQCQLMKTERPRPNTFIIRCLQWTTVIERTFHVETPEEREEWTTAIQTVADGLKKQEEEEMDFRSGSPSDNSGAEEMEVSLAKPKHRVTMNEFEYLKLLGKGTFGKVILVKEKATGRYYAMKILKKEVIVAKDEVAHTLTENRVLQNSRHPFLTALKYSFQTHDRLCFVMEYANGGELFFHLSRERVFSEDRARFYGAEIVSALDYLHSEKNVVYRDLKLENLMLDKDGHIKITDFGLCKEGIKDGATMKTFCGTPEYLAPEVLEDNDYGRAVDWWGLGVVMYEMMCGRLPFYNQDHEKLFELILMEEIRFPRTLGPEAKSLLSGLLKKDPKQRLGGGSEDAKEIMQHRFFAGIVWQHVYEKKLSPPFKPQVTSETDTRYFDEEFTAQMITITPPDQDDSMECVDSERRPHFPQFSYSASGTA
Description: as §1

With Cn1ncc(Cl)c1-c1ccc2c(c1)CN([C@H](CNC1CC1)Cc1cccc(F)c1)C2=O [Example 33, 5-(4-chloro-1-methyl-1H-pyrazol-5-yl)-2-[(1S)-2-(cyclopropylamino)-1-(3-fluorobenzyl)ethyl]isoindolin-1-one] the IC50 [1] was 0.5 to 5 µM, the IC50 [2] was > 5 µM and the IC50 [3] was 0.5 to 5 µM. The IC50 [4] was < 0.5 µM.

For Cn1ncc(Cl)c1-c1ccc2c(c1)CN([C@H](CNC1CCC1)Cc1cccc(F)c1)C2=O [Example 34, 5-(4-chloro-1-methyl-1H-pyrazol-5-yl)-2-[(1S)-2-(cyclobutylamino)-1-(3-fluorobenzyl)ethyl]isoindolin-1-one], the IC50 [1] was 0.5 to 5 µM, the IC50 [2] was > 5 µM and the IC50 [3] was 0.5 to 5 µM. The IC50 [4] was < 0.5 µM.

For Cn1ncc(Cl)c1-c1ccc2c(c1)CN([C@H](CNC1CCCC1)Cc1cccc(F)c1)C2=O [Example 35, 5-(4-chloro-1-methyl-1H-pyrazol-5-yl)-2-[(1S)-2-(cyclopentylamino)-1-(3-fluorobenzyl)ethyl]isoindolin-1-one], the IC50 [1] was 0.5 to 5 µM, the IC50 [2] was > 5 µM and the IC50 [3] was 0.5 to 5 µM. For the same compound, the IC50 [4] was < 0.5 µM.

In the case of Cn1ncc(Cl)c1-c1ccc2c(c1)CN([C@H](CNC1CCOCC1)Cc1cccc(F)c1)C2=O [Example 36, 5-(4-chloro-1-methyl-1H-pyrazol-5-yl)-2-[(1S)-1-(3-fluorobenzyl)-2-(tetrahydro-2H-pyran-4-ylamino)ethyl]isoindolin-1-one], the IC50 [1] is reported as > 5 µM, the IC50 [2] is reported as > 5 µM and the IC50 [3] is reported as 0.5 to 5 µM. For the same compound, the IC50 [4] was 0.5 to 5 µM.

For CN1CCC(NC[C@H](Cc2cccc(F)c2)N2Cc3cc(-c4c(Cl)cnn4C)ccc3C2=O)CC1 [Example 37, 5-(4-chloro-1-methyl-1H-pyrazol-5-yl)-2-{(1S)-1-(3-fluorobenzyl)-2-[(1-methylpiperidin-4-yl)amino]ethyl}isoindolin-1-one], the IC50 [1] was 0.5 to 5 µM, the IC50 [2] was > 5 µM and the IC50 [3] was 0.5 to 5 µM. For the same compound, the IC50 [4] was < 0.5 µM.

For CN(C)C[C@H](Cc1cccc(F)c1)N1Cc2cc(-c3c(Cl)cnn3C)ccc2C1=O [Example 38, 5-(4-chloro-1-methyl-1H-pyrazol-5-yl)-2-[(1S)-2-(dimethylamino)-1-(3-fluorobenzyl)ethyl]isoindolin-1-one], the IC50 [1] was > 5 µM, the IC50 [2] was > 5 µM and the IC50 [3] was > 5 µM. For the same compound, the IC50 [4] was 0.5 to 5 µM.

For CCN(CC)C[C@H](Cc1cccc(F)c1)N1Cc2cc(-c3c(Cl)cnn3C)ccc2C1=O [Example 39, 5-(4-chloro-1-methyl-1H-pyrazol-5-yl)-2-[(1S)-2-(diethylamino)-1-(3-fluorobenzyl)ethyl]isoindolin-1-one], the IC50 [1] was 0.5 to 5 µM, the IC50 [2] was > 5 µM and the IC50 [3] was > 5 µM. For the same compound, the IC50 [4] was < 0.5 µM.

CSCc1cnn(C)c1-c1ccc2c(c1)CN([C@H](CN)Cc1ccccc1)C2=O [Example 59, 2-[(1S)-2-amino-1-benzyl-ethyl]-5-[4-(methylthiomethyl)-1-methyl-1H-pyrazol-5-yl]isoindolin-1-one] was tested, and the IC50 [1] was 0.5 to 5 µM, the IC50 [2] was > 5 µM and the IC50 [3] was 0.5 to 5 µM. For the same compound, the IC50 [4] was < 0.5 µM.

In the case of Cn1ncc(Cl)c1-c1ccc2c(c1)CN([C@H](CN)Cc1ccc(C#N)cc1)C2=O [Example 63, 4-{(2S)-3-amino-2-[5-(4-chloro-1-methyl-1H-pyrazol-5-yl)-1-oxo-1,3-dihydro-2H-isoindol-2-yl]propyl}benzonitrile], the IC50 [1] is reported as 0.5 to 5 µM, the IC50 [2] is reported as > 5 µM and the IC50 [3] is reported as 0.5 to 5 µM. For the same compound, the IC50 [4] was < 0.5 µM.

In the case of COc1cc(C[C@@H](CN)N2Cc3cc(-c4c(Cl)cnn4C)ccc3C2=O)ccn1 [Example 64, 2-{(1S)-2-amino-1-[(2-methoxypyridin-4-yl)methyl]ethyl}-5-(4-chloro-1-methyl-1H-pyrazol-5-yl)isoindolin-1-one], the IC50 [1] is reported as > 5 µM, the IC50 [2] is reported as > 5 µM and the IC50 [3] is reported as > 5 µM. The IC50 [4] was 0.5 to 5 µM.

With Cn1cc(-c2cccc(C[C@@H](CN)N3Cc4cc(-c5c(Cl)cnn5C)ccc4C3=O)c2)cn1 [Example 70, 2-{(1S)-2-amino-1-[3-(1-methyl-1H-pyrazol-4-yl)benzyl]ethyl}-5-(4-chloro-1-methyl-1H-pyrazol-5-yl)isoindolin-1-one] the IC50 [1] was 0.5 to 5 µM, the IC50 [2] was > 5 µM and the IC50 [3] was > 5 µM. The IC50 [4] was < 0.5 µM.
